{"source": "patent US7713922B2", "about": "“Perfume compositions” (Quest International Services B.V., priority 2005, dated 2010)", "origin": "cited, not measured here", "note": "Structures can show the parent of a compound that is named as a salt.", "data": [{"settings": "at 25° C.", "values": [{"molecule": "C=CCc1ccc(OC)cc1", "note": "[METHYL CHAVICOL, 4-METHOXY-1-(2-PROPENYL)-BENZENE]", "VP Class (vapour pressure class)": "III (vp at least 100 micron Hg at 25° C.)"}, {"molecule": "COc1ccc(CC(C)C=O)cc1", "note": "(stereo not shown) [CANTHOXAL, 2-METHYL-3-(4-METHOXYPHENYL)PROPANAL]", "VP Class (vapour pressure class)": "I (vp greater than 3 micron Hg but less than 30 micron Hg at 25° C.)"}, {"molecule": "CC(=O)c1ccc(C)cc1", "note": "[para-METHYLACETOPHENONE]", "VP Class (vapour pressure class)": "III (vp at least 100 micron Hg at 25° C.)"}, {"molecule": "CCCCCOC(=O)c1ccccc1O", "note": "[AMYL SALICYLATE]", "VP Class (vapour pressure class)": "I (vp greater than 3 micron Hg but less than 30 micron Hg at 25° C.)"}, {"molecule": "COC(=O)Cc1ccccc1", "note": "[METHYL PHENYLACETATE]", "VP Class (vapour pressure class)": "III (vp at least 100 micron Hg at 25° C.)"}, {"molecule": "COC(=O)C=Cc1ccccc1", "note": "[METHYL CINNAMATE]", "VP Class (vapour pressure class)": "I (vp greater than 3 micron Hg but less than 30 micron Hg at 25° C.)"}, {"molecule": "COc1ccc(C=O)cc1", "note": "[ANISIC ALDEHYDE]", "VP Class (vapour pressure class)": "II (vp greater than 30 micron Hg but less than 100 micron at 25° C.)"}, {"molecule": "COC(=O)c1ccccc1", "note": "[METHYL BENZOATE]", "VP Class (vapour pressure class)": "III (vp at least 100 micron Hg at 25° C.)"}, {"molecule": "2,4-DIMETHYL-6-PHENYLDIHYDROPYRAN", "VP Class (vapour pressure class)": "I (vp greater than 3 micron Hg but less than 30 micron Hg at 25° C.)"}, {"molecule": "CCOC(C)OCCc1ccccc1", "note": "(stereo not shown) [EFETAAL, (2-{[1-(ETHYLOXY)ETHYL]OXY}ETHYL)BENZENE]", "VP Class (vapour pressure class)": "II (vp greater than 30 micron Hg but less than 100 micron at 25° C.)"}, {"molecule": "c1ccc(Oc2ccccc2)cc1", "note": "[DIPHENYL OXIDE]", "VP Class (vapour pressure class)": "I (vp greater than 3 micron Hg but less than 30 micron Hg at 25° C.)"}, {"molecule": "CC(=O)OCc1ccccc1", "note": "[BENZYL ACETATE]", "VP Class (vapour pressure class)": "III (vp at least 100 micron Hg at 25° C.)"}, {"molecule": "CC(=O)OC(C)c1ccccc1", "note": "(stereo not shown) [STYRALLYL ACETATE]", "VP Class (vapour pressure class)": "III (vp at least 100 micron Hg at 25° C.)"}, {"molecule": "CC(C)COC(=O)c1ccccc1O", "note": "[ISOBUTYL SALICYLATE]", "VP Class (vapour pressure class)": "I (vp greater than 3 micron Hg but less than 30 micron Hg at 25° C.)"}, {"molecule": "CC(C=O)Cc1ccc2c(c1)OCO2", "note": "(stereo not shown) [AQUANAL]", "VP Class (vapour pressure class)": "I (vp greater than 3 micron Hg but less than 30 micron Hg at 25° C.)"}, {"molecule": "CC(C)CCOC(=O)c1ccccc1O", "note": "[ISOAMYL SALICYLATE]", "VP Class (vapour pressure class)": "I (vp greater than 3 micron Hg but less than 30 micron Hg at 25° C.)"}, {"molecule": "CC=Cc1ccc(OC)cc1", "note": "[ANETHOLE]", "VP Class (vapour pressure class)": "II (vp greater than 30 micron Hg but less than 100 micron at 25° C.)"}, {"molecule": "CC1CC(C)(c2ccccc2)CO1", "note": "(stereo not shown) [RHUBAFURAN]", "VP Class (vapour pressure class)": "II (vp greater than 30 micron Hg but less than 100 micron at 25° C.)"}, {"molecule": "C/C=C(\\C)C(=O)OCc1ccccc1", "note": "[BENZYL TIGLATE, PHENYLMETHYL (2E)-2-METHYLBUT-2-ENOATE]", "VP Class (vapour pressure class)": "I (vp greater than 3 micron Hg but less than 30 micron Hg at 25° C.)"}, {"molecule": "CC(=O)OCCc1ccccc1", "note": "[PHENYLETHYL ACETATE]", "VP Class (vapour pressure class)": "II (vp greater than 30 micron Hg but less than 100 micron at 25° C.)"}, {"molecule": "CC(C)(C)c1ccc(CCC=O)cc1", "note": "[BOURGEONAL, 3-(4-TERT.BUTYLPHENYL)PROPANAL]", "VP Class (vapour pressure class)": "I (vp greater than 3 micron Hg but less than 30 micron Hg at 25° C.)"}, {"molecule": "COC(=O)c1ccccc1O", "note": "[METHYL SALICYLATE]", "VP Class (vapour pressure class)": "III (vp at least 100 micron Hg at 25° C.)"}, {"molecule": "CC(C=O)Cc1ccc(C(C)C)cc1", "note": "(stereo not shown) [CYCLAMEN ALDEHYDE, 2-METHYL-3-(4′-ISO-PROPYLPHENYL)PROPANAL]", "VP Class (vapour pressure class)": "I (vp greater than 3 micron Hg but less than 30 micron Hg at 25° C.)"}, {"molecule": "CC(=O)c1ccccc1", "note": "[ACETOPHENONE]", "VP Class (vapour pressure class)": "III (vp at least 100 micron Hg at 25° C.)"}, {"molecule": "COC(=O)c1ccccc1N", "note": "[METHYL ANTHRANILATE]", "VP Class (vapour pressure class)": "I (vp greater than 3 micron Hg but less than 30 micron Hg at 25° C.)"}, {"molecule": "CCOC(=O)c1ccccc1", "note": "[ETHYL BENZOATE]", "VP Class (vapour pressure class)": "III (vp at least 100 micron Hg at 25° C.)"}, {"molecule": "COCCc1ccccc1", "note": "[2-PHENYLETHYL METHYL ETHER]", "VP Class (vapour pressure class)": "III (vp at least 100 micron Hg at 25° C.)"}, {"molecule": "C=CCc1ccc(O)c(OC)c1", "note": "[EUGENOL]", "VP Class (vapour pressure class)": "I (vp greater than 3 micron Hg but less than 30 micron Hg at 25° C.)"}, {"molecule": "CC(=O)CCc1ccccc1", "note": "[BENZYL ACETONE]", "VP Class (vapour pressure class)": "II (vp greater than 30 micron Hg but less than 100 micron at 25° C.)"}, {"molecule": "CC=Cc1ccc(O)c(OC)c1", "note": "[ISOEUGENOL]", "VP Class (vapour pressure class)": "II (vp greater than 30 micron Hg but less than 100 micron at 25° C.)"}, {"molecule": "CC(CCO)CCc1ccccc1", "note": "(stereo not shown) [MEFROSOL, 3-METHYL-5-PHENYLPENTANOL]", "VP Class (vapour pressure class)": "I (vp greater than 3 micron Hg but less than 30 micron Hg at 25° C.)"}, {"molecule": "CC(C)(C)c1ccc(CC#N)cc1", "note": "[MARENIL, 4-TERT-BUTYLPHENYLACETONITRILE]", "VP Class (vapour pressure class)": "I (vp greater than 3 micron Hg but less than 30 micron Hg at 25° C.)"}, {"molecule": "OC/C=C/c1ccccc1", "note": "[CINNAMIC ALCOHOL]", "VP Class (vapour pressure class)": "I (vp greater than 3 micron Hg but less than 30 micron Hg at 25° C.)"}, {"molecule": "O=COCCc1ccccc1", "note": "[PHENYLETHYL FORMATE]", "VP Class (vapour pressure class)": "II (vp greater than 30 micron Hg but less than 100 micron at 25° C.)"}, {"molecule": "C=CCc1ccc(OC)c(OC)c1", "note": "[METHYL EUGENOL]", "VP Class (vapour pressure class)": "I (vp greater than 3 micron Hg but less than 30 micron Hg at 25° C.)"}, {"molecule": "CC(C)OCCc1ccccc1", "note": "[PETIOLE, 2-PHENYLETHYL ISOPROPYL ETHER]", "VP Class (vapour pressure class)": "III (vp at least 100 micron Hg at 25° C.)"}, {"molecule": "COC(Cc1ccccc1)OC", "VP Class (vapour pressure class)": "III (vp at least 100 micron Hg at 25° C.)"}, {"molecule": "CC(C)c1cccc(C(C)CC=O)c1", "note": "(stereo not shown) [FLORHYDRAL]", "VP Class (vapour pressure class)": "I (vp greater than 3 micron Hg but less than 30 micron Hg at 25° C.)"}, {"molecule": "OCCCc1ccccc1", "note": "[3-PHENYLPROPYL ALCOHOL]", "VP Class (vapour pressure class)": "I (vp greater than 3 micron Hg but less than 30 micron Hg at 25° C.)"}, {"molecule": "CC(C)C(=O)OCCOc1ccccc1", "note": "[PHENOXYETHYL ISOBUTYRATE]", "VP Class (vapour pressure class)": "I (vp greater than 3 micron Hg but less than 30 micron Hg at 25° C.)"}, {"molecule": "CC(CC=O)CCc1ccccc1", "note": "(stereo not shown) [MEFRANAL, 3-METHYL-5-PHENYLPENTANAL]", "VP Class (vapour pressure class)": "I (vp greater than 3 micron Hg but less than 30 micron Hg at 25° C.)"}, {"molecule": "CC(C)CCOCCc1ccccc1", "note": "[ANTHER, 2-PHENYLETHYL ISOAMYL ETHER]", "VP Class (vapour pressure class)": "II (vp greater than 30 micron Hg but less than 100 micron at 25° C.)"}, {"molecule": "C=CCOC(=O)COc1ccccc1", "note": "[ALLYL PHENOXYACETATE]", "VP Class (vapour pressure class)": "I (vp greater than 3 micron Hg but less than 30 micron Hg at 25° C.)"}, {"molecule": "COc1ccc(C)cc1", "note": "[para-CRESYL METHYL ETHER]", "VP Class (vapour pressure class)": "III (vp at least 100 micron Hg at 25° C.)"}, {"molecule": "CCc1ccc(CC(C)(C)C=O)cc1", "note": "[FLORALOZONE, 2,2-DIMETHYL-3-(PARA-ETHYL PHENYL)PROPANAL]", "VP Class (vapour pressure class)": "I (vp greater than 3 micron Hg but less than 30 micron Hg at 25° C.)"}, {"molecule": "COc1ccc(C(C)=O)cc1", "note": "[para-METHOXYACETOPHENONE]", "VP Class (vapour pressure class)": "II (vp greater than 30 micron Hg but less than 100 micron at 25° C.)"}]}]}
